Assay results from ChEMBL document CHEMBL5042479, “Synthesis and Characterization of New V1A Antagonist Compounds: The Separation of Four Atropisomeric Stereoisomers” (J Med Chem, 2021).
In brackets after ≈: the same amount, converted by molar mass.

Assays:
[1] = target: T1, Vasopressin V1a receptor (Homo sapiens, UniProt P37288); experiment: Displacement of [3H]-arginine-vasopressin from human V1A receptor expressed in human 1321N1 cell membranes incubated for 60 mins by radioligand binding assay; set-up: species or system Membrane
Target sequence in this assay (P37288 whole entry): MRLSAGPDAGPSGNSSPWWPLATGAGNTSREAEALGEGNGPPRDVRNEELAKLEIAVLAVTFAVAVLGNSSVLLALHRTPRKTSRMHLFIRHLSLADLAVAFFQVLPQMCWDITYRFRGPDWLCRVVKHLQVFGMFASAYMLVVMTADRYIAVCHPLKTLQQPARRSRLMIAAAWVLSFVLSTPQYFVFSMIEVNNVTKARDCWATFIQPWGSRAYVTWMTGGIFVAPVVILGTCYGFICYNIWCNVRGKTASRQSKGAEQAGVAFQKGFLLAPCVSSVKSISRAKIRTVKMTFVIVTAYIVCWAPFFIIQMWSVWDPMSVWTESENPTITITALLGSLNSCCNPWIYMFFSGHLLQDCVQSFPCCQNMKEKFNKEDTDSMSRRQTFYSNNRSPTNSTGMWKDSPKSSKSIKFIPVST

[2] = Intrinsic clearance in human liver microsomes in presence of reduced NADPH
[3] = Intrinsic clearance in rat liver microsomes in presence of reduced NADPH
[4] = Intrinsic clearance in mouse liver microsomes in presence of reduced NADPH
[5] = target: T2, Vasopressin V2 receptor (Homo sapiens, UniProt P30518); experiment: Displacement of [3H]-labelled arginine-vasopressin from human V2 receptor expressed in human 1321N1 cell membranes at 1 uM incubated for 60 mins by radioligand binding assay; settings: Membrane
T2 sequence (P30518 whole entry): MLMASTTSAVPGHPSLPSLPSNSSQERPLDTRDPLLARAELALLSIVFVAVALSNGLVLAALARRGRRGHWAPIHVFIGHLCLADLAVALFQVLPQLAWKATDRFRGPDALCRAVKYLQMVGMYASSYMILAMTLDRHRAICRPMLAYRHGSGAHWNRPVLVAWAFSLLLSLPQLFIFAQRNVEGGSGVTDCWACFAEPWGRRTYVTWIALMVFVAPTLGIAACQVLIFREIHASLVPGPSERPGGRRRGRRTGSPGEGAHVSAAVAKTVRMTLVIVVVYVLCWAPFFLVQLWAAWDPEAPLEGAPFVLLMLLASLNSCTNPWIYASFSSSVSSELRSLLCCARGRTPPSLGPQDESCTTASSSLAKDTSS

[6] = target: T2, Vasopressin V2 receptor; experiment: Displacement of [3H]-arginine-vasopressin from human V2 receptor expressed in human 1321N1 cell membranes incubated for 60 mins by radioligand binding assay; set-up: species or system Membrane
[7] = tested on: 1321N1; experiment: Selectivity ratio of Ki for human V2 receptor expressed in human 1321N1 cell membranes to Ki for human V1A receptor expressed in human 1321N1 cell membranes; type: cell-based
[8] = Apparent permeability across apical to basolateral side in mouse Caco-2 cells; settings: human
[9] = Permeability directional ratio in mouse Caco-2 cells; settings: human
[10] = physchem; settings: PBS, pH 7.4
Description: Kinetic solubility of compound in PBS at pH 7.4 incubated for 2 hrs by HPLC-MS analysis

[11] = target: T1, Vasopressin V1a receptor; experiment: Inhibition of human V1A receptor expressed in human 1321N1 cells assessed as calcium mobilization by fluorescent plate reader; type: functional, cell-based
Target sequence in this assay (P37288 whole entry): as the sequence (P37288 whole entry) above

[12] = target: T1, Vasopressin V1a receptor; experiment: Displacement of [3H]-labelled arginine-vasopressin from human V1A receptor expressed in human 1321N1 cell membranes at 5 nM incubated for 60 mins by radioligand binding assay; settings: Membrane
Target sequence in this assay (P37288 whole entry, looked up): as the sequence (P37288 whole entry) above

Cc1cccc2c1-n1c(nnc1[C@H]1CC[C@H](Oc3ccccn3)CC1)C[C@@H](O)C2 (atropisomer aR) [listing 1 of 2 here]
Ki [1]: 6.3 nM

Clc1ccc2c(c1)CCCc1nnc([C@H]3CC[C@H](Oc4ccccn4)CC3)n1-2
CLH [2]: 7 µL/min/mg | CLH [3]: 124 µL/min/mg | CLH [4]: 94 µL/min/mg

Cc1cccc2c1-n1c(nnc1[C@H]1CC[C@H](Oc3ccccn3)CC1)C[C@H](O)C2 (atropisomer aR) [listing 1 of 2 here]
inhibition [5]: -3%

Cc1cccc2c1CC(O)Cc1nnc([C@H]3CC[C@H](Oc4ccccn4)CC3)n1-2 (stereo partly specified)
Ki [1]: 8.8 nM | inhibition [5]: -9%

O[C@H]1Cc2cc(Cl)ccc2-n2c(nnc2[C@H]2CC[C@H](Oc3ccccn3)CC2)C1
Ki [6]: 900 nM | Selectivity ratio [7]: 3000 | microsomal CLint [2]: 4.1 µL/min/mg | microsomal CLint [3]: 56.2 µL/min/mg | microsomal CLint [4]: 6.7 µL/min/mg | Papp A→B [8]: 20.5 ×10⁻⁶ cm/s | efflux ratio [9]: 4.7 | solubility kinetic at 2 h [10]: 98.9 µM (≈ 40.6 µg/mL)

Cc1cccc2c1-n1c(nnc1[C@H]1CC[C@H](Oc3ccccn3)CC1)C[C@@H](O)C2 (atropisomer aR) [listing 2 of 2 here]
inhibition [5]: -6%

OC1Cc2c(Cl)cccc2-n2c(nnc2[C@H]2CC[C@H](Oc3ccccn3)CC2)C1 (stereo partly specified)
Ki [1]: 12 nM

Cc1ccc2c(c1)CC(O)Cc1nnc([C@H]3CC[C@H](Oc4ccccn4)CC3)n1-2 (stereo partly specified)
Ki [1]: 0.4 nM | IC50 [11]: 1.9 nM | Ki [6]: 1070 nM

Cc1cccc2c1-n1c(nnc1[C@H]1CC[C@H](Oc3ccccn3)CC1)C[C@@H](O)C2 (atropisomer aS) [listing 1 of 2 here]
inhibition [5]: 0%

Cc1cccc2c1-n1c(nnc1[C@H]1CC[C@H](Oc3ccccn3)CC1)C[C@H](O)C2 (atropisomer aS) [listing 1 of 2 here]
inhibition [5]: -5%

OC1Cc2cc(Cl)ccc2-n2c(nnc2[C@H]2CC[C@H](Oc3ccccn3)CC2)C1 (stereo partly specified)
Selectivity ratio [7]: 1570 | microsomal CLint [2]: 0.4 µL/min/mg | microsomal CLint [3]: 38 µL/min/mg | microsomal CLint [4]: 6.3 µL/min/mg | Papp A→B [8]: 20.3 ×10⁻⁶ cm/s | efflux ratio [9]: 6.2 | solubility kinetic at 2 h [10]: 97.5 µM (≈ 40.1 µg/mL)

CN(C)CCn1cc(C(=O)N2CCC3(CC2)OCc2ccccc23)c2ccc(Cl)cc21
inhibition [5]: -6%

OC1Cc2ccc(Cl)cc2-n2c(nnc2[C@H]2CC[C@H](Oc3ccccn3)CC2)C1 (stereo partly specified)
inhibition [12]: 26%

Cc1cccc2c1-n1c(nnc1[C@H]1CC[C@H](Oc3ccccn3)CC1)C[C@@H](O)C2 (atropisomer aS) [listing 2 of 2 here]
Ki [1]: 2640 nM

O[C@@H]1Cc2cc(Cl)ccc2-n2c(nnc2[C@H]2CC[C@H](Oc3ccccn3)CC2)C1
Ki [6]: 200 nM | Selectivity ratio [7]: 667 | microsomal CLint [2]: 3.2 µL/min/mg | microsomal CLint [3]: 16.6 µL/min/mg | microsomal CLint [4]: 5.1 µL/min/mg | Papp A→B [8]: 22.5 ×10⁻⁶ cm/s | efflux ratio [9]: 3.7 | solubility kinetic at 2 h [10]: 95.1 µM (≈ 39.1 µg/mL)

CN1Cc2cc(Cl)ccc2-n2c(nnc2C2CCN(c3ccccn3)CC2)C1
inhibition [5]: 13%

Cc1cccc2c1-n1c(nnc1[C@H]1CC[C@H](Oc3ccccn3)CC1)C[C@H](O)C2 (atropisomer aS) [listing 2 of 2 here]
Ki [1]: 146 nM

Cc1cccc2c1-n1c(nnc1[C@H]1CC[C@H](Oc3ccccn3)CC1)C[C@H](O)C2 (atropisomer aR) [listing 2 of 2 here]
Ki [1]: 11 nM

Cc1ccc2c(c1)-n1c(nnc1[C@H]1CC[C@H](Oc3ccccn3)CC1)CC(O)C2 (stereo partly specified)
Ki [1]: 34 nM | IC50 [11]: 390 nM | inhibition [5]: 3%
